Results as given in patent publication US9452986B2, “6-heteroaryloxy- or 6-aryloxy-quinoline-2-carboxamides and method of use” (AbbVie Inc., priority 2014, dated 2016).
Read-outs that look alike come from different tables or passages of the source.

Molecular target: recombinant human Nav1.7 (Homo sapiens (Human), UniProt Q15858)
Test: FRET-based membrane potential assay, recombinant human sodium channel Nav1.7
Format: cell-based
Details: read-out: FRET-Membrane Potential Nav1.7 IC50
Summary of the method: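 Channel activation used veratridine at its EC80, set by a dilution curve each experiment, together with Leiurus scorpion venom, added 3 min after compound. Membrane-potential ratio signals from FLIPR Tetra in HEPES-buffered HBSS were fitted to a four-parameter Hill equation for percent inhibition and IC50.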

[1] = HEK293 cells stably expressing recombinant human Nav1.7, veratridine + scorpion venom depolarization

Chain of recombinant human Nav1.7 (Q15858 whole entry): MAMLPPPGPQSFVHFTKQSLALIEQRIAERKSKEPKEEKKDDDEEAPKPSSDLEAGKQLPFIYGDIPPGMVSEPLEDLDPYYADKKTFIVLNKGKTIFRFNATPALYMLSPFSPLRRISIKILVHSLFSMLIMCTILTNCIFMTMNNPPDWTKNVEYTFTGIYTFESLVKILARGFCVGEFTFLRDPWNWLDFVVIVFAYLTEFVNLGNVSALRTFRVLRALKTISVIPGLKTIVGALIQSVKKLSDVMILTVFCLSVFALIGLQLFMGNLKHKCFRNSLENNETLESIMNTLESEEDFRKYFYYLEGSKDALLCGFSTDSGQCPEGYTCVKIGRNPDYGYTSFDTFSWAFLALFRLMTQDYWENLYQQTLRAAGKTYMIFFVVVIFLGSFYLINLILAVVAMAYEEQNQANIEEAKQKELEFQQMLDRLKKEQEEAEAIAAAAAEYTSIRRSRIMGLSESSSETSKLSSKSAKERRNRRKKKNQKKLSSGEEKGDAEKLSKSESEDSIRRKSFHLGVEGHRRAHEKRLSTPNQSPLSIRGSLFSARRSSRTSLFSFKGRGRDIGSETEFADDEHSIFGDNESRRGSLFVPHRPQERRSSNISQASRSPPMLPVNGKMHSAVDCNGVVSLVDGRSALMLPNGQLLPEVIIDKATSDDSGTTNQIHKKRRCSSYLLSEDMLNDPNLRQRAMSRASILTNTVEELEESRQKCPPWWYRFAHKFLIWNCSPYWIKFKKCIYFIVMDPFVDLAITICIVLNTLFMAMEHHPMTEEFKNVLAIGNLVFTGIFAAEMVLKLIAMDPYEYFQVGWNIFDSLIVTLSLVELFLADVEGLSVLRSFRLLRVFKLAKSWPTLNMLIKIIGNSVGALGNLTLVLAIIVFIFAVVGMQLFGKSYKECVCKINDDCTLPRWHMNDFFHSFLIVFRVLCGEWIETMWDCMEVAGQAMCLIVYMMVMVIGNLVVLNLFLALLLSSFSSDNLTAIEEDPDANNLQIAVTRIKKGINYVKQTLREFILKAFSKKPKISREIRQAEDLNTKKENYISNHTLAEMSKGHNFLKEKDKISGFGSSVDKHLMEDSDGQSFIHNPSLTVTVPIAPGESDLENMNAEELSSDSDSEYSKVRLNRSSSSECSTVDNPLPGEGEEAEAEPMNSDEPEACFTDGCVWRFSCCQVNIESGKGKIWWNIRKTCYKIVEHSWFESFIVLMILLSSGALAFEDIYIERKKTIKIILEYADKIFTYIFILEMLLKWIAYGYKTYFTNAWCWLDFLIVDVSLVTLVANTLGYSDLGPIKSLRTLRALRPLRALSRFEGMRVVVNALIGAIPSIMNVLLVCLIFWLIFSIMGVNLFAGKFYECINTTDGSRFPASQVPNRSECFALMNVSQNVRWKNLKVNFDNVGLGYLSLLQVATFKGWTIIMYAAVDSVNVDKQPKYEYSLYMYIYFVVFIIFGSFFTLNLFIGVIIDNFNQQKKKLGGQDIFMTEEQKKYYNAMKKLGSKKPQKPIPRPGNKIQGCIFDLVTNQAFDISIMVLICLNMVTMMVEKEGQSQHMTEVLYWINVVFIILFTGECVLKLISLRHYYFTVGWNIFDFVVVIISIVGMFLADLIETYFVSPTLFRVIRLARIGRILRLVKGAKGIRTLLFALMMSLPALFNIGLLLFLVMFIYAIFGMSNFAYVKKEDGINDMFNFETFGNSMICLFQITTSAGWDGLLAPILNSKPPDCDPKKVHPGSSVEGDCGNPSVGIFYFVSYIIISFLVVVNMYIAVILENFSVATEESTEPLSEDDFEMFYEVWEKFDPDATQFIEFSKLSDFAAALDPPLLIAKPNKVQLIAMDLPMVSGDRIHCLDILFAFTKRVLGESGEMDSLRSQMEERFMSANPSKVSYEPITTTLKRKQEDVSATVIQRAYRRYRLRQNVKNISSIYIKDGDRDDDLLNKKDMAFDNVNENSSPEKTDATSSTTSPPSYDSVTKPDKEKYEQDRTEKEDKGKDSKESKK

## N#Cc1ccc(Oc2ccc3nc(C(=O)N[C@H]4CCC[C@@H]4O)ccc3c2)cc1 [Example 121, 6-(4-cyanophenoxy)-N-[(1S,2S)-2-hydroxycyclopentyl]quinoline-2-carboxamide]
  IC50: 1.66 µM

## CN(C(=O)c1ccc2cc(Oc3ccc(C(F)(F)F)cn3)ccc2n1)C1COC1 [Example 480, N-methyl-N-(oxetan-3-yl)-6-{[5-(trifluoromethyl)pyridin-2-yl]oxy}quinoline-2-carboxamide]
[1]
  IC50: 19.9 µM

## CS(=O)(=O)NC1CCN(C(=O)c2ccc3cc(Oc4ccc(C(F)(F)F)cn4)ccc3n2)CC1 [Example 408, N-{1-[(6-{[5-(trifluoromethyl)pyridin-2-yl]oxy}quinolin-2-yl)carbonyl]piperidin-4-yl}methanesulfonamide]
[1]
  IC50: > 20 µM

## N#Cc1ccc(Oc2ccc3nc(C(=O)Nc4nccs4)ccc3c2)cc1 [Example 88, 6-(4-cyanophenoxy)-N-(1,3-thiazol-2-yl)quinoline-2-carboxamide]
[1]
  IC50: > 20 µM

## O=C(NC1CC2CCC(C1)N2)c1ccc2cc(Oc3ccc(C(F)(F)F)cn3)ccc2n1 (stereo not shown) [Example 267, N-(8-azabicyclo[3.2.1]oct-3-yl)-6-{[5-(trifluoromethyl)pyridin-2-yl]oxy}quinoline-2-carboxamide]
  IC50: 10.2 µM

## O=C(N[C@H]1CCC[C@H]1O)c1ccc2cc(Oc3ccc(C(F)(F)F)cn3)ccc2n1 [Example 401, N-[(1S,2R)-2-hydroxycyclopentyl]-6-{[5-(trifluoromethyl)pyridin-2-yl]oxy}quinoline-2-carboxamide]
[1]
  IC50: 0.4 µM

## CC(O)c1ccc(Oc2ccc3nc(C(=O)N4CCNCC4)ccc3c2)cc1 (stereo not shown) [Example 275, {6-[4-(1-hydroxyethyl)phenoxy]quinolin-2-yl}(piperazin-1-yl)methanone]
[1]
  IC50: 11.4 µM

## O=C(c1ccc2cc(Oc3ccc(C(F)(F)F)nc3)ccc2n1)N1CC[C@H](F)C1 [Example 550, [(3S)-3-fluoropyrrolidin-1-yl](6-{[6-(trifluoromethyl)pyridin-3-yl]oxy}quinolin-2-yl)methanone]
[1]
  IC50: 10.7 µM

## O=C1CCN(C(=O)c2ccc3cc(Oc4ccc(C(F)(F)F)cn4)ccc3n2)CC1 [Example 375, 1-[(6-{[5-(trifluoromethyl)pyridin-2-yl]oxy}quinolin-2-yl)carbonyl]piperidin-4-one]
[1]
  IC50: 13.2 µM

## O=C(c1ccc2cc(Oc3ccc(C(F)(F)F)cn3)ccc2n1)N1CC2(CCNCC2)C1 [Example 232, 2,7-diazaspiro[3.5]non-2-yl(6-{[5-(trifluoromethyl)pyridin-2-yl]oxy}quinolin-2-yl)methanone]
[1]
  IC50: 17.4 µM

## CS(=O)(=O)C1CCN(C(=O)c2ccc3cc(Oc4ccc(C(F)(F)F)cn4)ccc3n2)CC1 [Example 254, [4-(methylsulfonyl)piperidin-1-yl](6-{[5-(trifluoromethyl)pyridin-2-yl]oxy}quinolin-2-yl)methanone]
[1]
  IC50: 13.8 µM

## CNC(=O)[C@@H]1CCCN1C(=O)c1ccc2cc(Oc3ccc(C(F)F)cn3)ccc2n1 [Example 455, 1-[(6-{[5-(difluoromethyl)pyridin-2-yl]oxy}quinolin-2-yl)carbonyl]-N-methyl-L-prolinamide]
  IC50: > 20 µM

## CNC(=O)c1ccc2cc(Oc3ccc(C(F)(F)F)cn3)ccc2n1 [Example 527, N-methyl-6-{[5-(trifluoromethyl)pyridin-2-yl]oxy}quinoline-2-carboxamide]
  IC50: 5.91 µM

## O=C(c1ccc2cc(Oc3ccc(C(F)(F)F)cn3)ccc2n1)N1CCN(S(=O)(=O)N2CCOCC2)CC1 [Example 185, [4-(morpholin-4-ylsulfonyl)piperazin-1-yl](6-{[5-(trifluoromethyl)pyridin-2-yl]oxy}quinolin-2-yl)methanone]
[1]
  IC50: > 20 µM

## O=C(c1ccc2cc(Oc3ccc(C(F)F)cn3)ccc2n1)N1CCN[C@H](CO)C1 [Example 585, (6-{[5-(difluoromethyl)pyridin-2-yl]oxy}quinolin-2-yl) [(3S)-3-(hydroxymethyl)piperazin-1-yl]methanone]
[1]
  IC50: > 20 µM

## CC(=O)NCC(C)CNC(=O)c1ccc2cc(Oc3ccc(C(F)(F)F)cn3)ccc2n1 (stereo not shown) [Example 610, N-(3-acetamido-2-methylpropyl)-6-{[5-(trifluoromethyl)pyridin-2-yl]oxy}quinoline-2-carboxamide]
[1]
  IC50: 2.76 µM

## CCCN(CCOC)C(=O)c1ccc2cc(Oc3ccc(C#N)cc3)ccc2n1 [Example 107, 6-(4-cyanophenoxy)-N-(2-methoxyethyl)-N-propylquinoline-2-carboxamide]
[1]
  IC50: 4.12 µM

## Cc1nc(CN2CCN(C(=O)c3ccc4cc(Oc5ccc(C(F)(F)F)cn5)ccc4n3)CC2)co1 [Example 531, {4-[(2-methyl-1,3-oxazol-4-yl)methyl]piperazin-1-yl}(6-{[5-(trifluoromethyl)pyridin-2-yl]oxy}quinolin-2-yl)methanone]
[1]
  IC50: 3.57 µM

## O=C(NCC1CS(=O)(=O)C1)c1ccc2cc(Oc3ccc(C(F)(F)F)cn3)ccc2n1 [Example 602, N-[(1,1-dioxidothietan-3-yl)methyl]-6-{[5-(trifluoromethyl)pyridin-2-yl]oxy}quinoline-2-carboxamide]
[1]
  IC50: 1.07 µM

## O=C(NCC1CCN1)c1ccc2cc(Oc3ccc(C(F)(F)F)cn3)ccc2n1 (stereo not shown) [Example 424, N-(azetidin-2-ylmethyl)-6-{[5-(trifluoromethyl)pyridin-2-yl]oxy}quinoline-2-carboxamide]
  IC50: 1.31 µM

## CN1CCC(NC(=O)c2ccc3cc(Oc4ccc(C(F)(F)F)cn4)ccc3n2)C1=O (stereo not shown) [Example 587, N-(1-methyl-2-oxopyrrolidin-3-yl)-6-{[5-(trifluoromethyl)pyridin-2-yl]oxy}quinoline-2-carboxamide]
[1]
  IC50: 1.02 µM

## O=C(c1ccc2cc(Oc3ccc(C(F)(F)F)cn3)ccc2n1)N1CCNC[C@@H]1CO [Example 243, [(2R)-2-(hydroxymethyl)piperazin-1-yl](6-{[5-(trifluoromethyl)pyridin-2-yl]oxy}quinolin-2-yl)methanone]
[1]
  IC50: > 20 µM

## O=C(NC[C@@H]1CCCO1)c1ccc2cc(Oc3ccc(C(F)(F)F)cn3)ccc2n1 [Example 394, N-[(2S)-tetrahydrofuran-2-ylmethyl]-6-{[5-(trifluoromethyl)pyridin-2-yl]oxy}quinoline-2-carboxamide]
[1]
  IC50: 0.443 µM

## O=C(c1ccc2cc(Oc3ccc(C(F)(F)F)cn3)ccc2n1)N1CC2(CCOC2)C1 [Example 532, 6-oxa-2-azaspiro[3.4]oct-2-yl(6-{[5-(trifluoromethyl)pyridin-2-yl]oxy}quinolin-2-yl)methanone]
[1]
  IC50: 2.77 µM

## CC1(O)CC(NC(=O)c2ccc3cc(Oc4ccc(C(F)(F)F)nc4)ccc3n2)C1 (stereo not shown) [Example 578, N-(3-hydroxy-3-methylcyclobutyl)-6-{[6-(trifluoromethyl)pyridin-3-yl]oxy}quinoline-2-carboxamide]
[1]
  IC50: 1.07 µM

## O=C(NC1COCC1O)c1ccc2cc(Oc3ccc(C(F)(F)F)cn3)ccc2n1 (stereo not shown) [Example 371, N-(4-hydroxytetrahydrofuran-3-yl)-6-{[5-(trifluoromethyl)pyridin-2-yl]oxy}quinoline-2-carboxamide]
[1]
  IC50: 1.46 µM

## CN1CC(NC(=O)c2ccc3cc(Oc4ccc(C(F)(F)F)nc4)ccc3n2)CC1=O (stereo not shown) [Example 519, N-(1-methyl-5-oxopyrrolidin-3-yl)-6-{[6-(trifluoromethyl)pyridin-3-yl]oxy}quinoline-2-carboxamide]
[1]
  IC50: 1.16 µM

## O=C(c1ccc2cc(Oc3ccc(C(F)(F)F)cn3)ccc2n1)N1CC[C@@H]2CN[C@@H]2C1 [Example 213, (1S,6R)-3,8-diazabicyclo[4.2.0]oct-3-yl(6-{[5-(trifluoromethyl)pyridin-2-yl]oxy}quinolin-2-yl)methanone]
[1]
  IC50: 9.4 µM

## CN(C)C(=O)[C@@H]1CCCN1C(=O)c1ccc2cc(Oc3ccc(C(F)(F)F)cn3)ccc2n1 [Example 451, N,N-dimethyl-1-[(6-{[5-(trifluoromethyl)pyridin-2-yl]oxy}quinolin-2-yl)carbonyl]-L-prolinamide]
[1]
  IC50: 5.23 µM

## CS(=O)(=O)C1CCN(C(=O)c2ccc3cc(Oc4ccc(C(F)(F)F)cn4)ccc3n2)C1 (stereo not shown) [Example 287, [3-(methylsulfonyl)pyrrolidin-1-yl](6-{[5-(trifluoromethyl)pyridin-2-yl]oxy}quinolin-2-yl)methanone]
[1]
  IC50: 2.81 µM

## O=C(c1ccc2cc(Oc3ccc(C(F)(F)F)cn3)ccc2n1)N1CCN(c2ccccc2)CC1 [Example 262, (4-phenylpiperazin-1-yl)(6-{[5-(trifluoromethyl)pyridin-2-yl]oxy}quinolin-2-yl)methanone]
[1]
  IC50: 2.09 µM

## O=C(c1ccc2cc(Oc3ccc(C(F)(F)F)cn3)ccc2n1)N1CCOC(CO)C1 (stereo not shown) [Example 339, [2-(hydroxymethyl)morpholin-4-yl](6-{[5-(trifluoromethyl)pyridin-2-yl]oxy}quinolin-2-yl)methanone]
[1]
  IC50: 14.4 µM

## O=C(NCCN1CCNC1=O)c1ccc2cc(Oc3ccc(C(F)(F)F)cn3)ccc2n1 [Example 421, N-[2-(2-oxoimidazolidin-1-yl)ethyl]-6-{[5-(trifluoromethyl)pyridin-2-yl]oxy}quinoline-2-carboxamide]
[1]
  IC50: 1.06 µM

## O=C(c1ccc2cc(Oc3ccc(C(F)(F)F)nc3)ccc2n1)N1CC(N2CCOCC2)C1 [Example 554, [3-(morpholin-4-yl)azetidin-1-yl](6-{[6-(trifluoromethyl)pyridin-3-yl]oxy}quinolin-2-yl)methanone]
[1]
  IC50: 14.1 µM

## NC(=O)[C@H]1CCCN(C(=O)c2ccc3cc(Oc4ccc(C(F)(F)F)cn4)ccc3n2)C1 [Example 325, (3S)-1-[(6-{[5-(trifluoromethyl)pyridin-2-yl]oxy}quinolin-2-yl)carbonyl]piperidine-3-carboxamide]
[1]
  IC50: 8.58 µM

## O=C(c1ccc2cc(Oc3ccc(C(F)(F)F)cn3)ccc2n1)N1CCNCC(O)C1 (stereo not shown) [Example 407, (6-hydroxy-1,4-diazepan-1-yl)(6-{[5-(trifluoromethyl)pyridin-2-yl]oxy}quinolin-2-yl)methanone]
[1]
  IC50: 3.81 µM

## O=C(NCCC(=O)N1CCOCC1)c1ccc2cc(Oc3ccc(C(F)(F)F)nc3)ccc2n1 [Example 515, N-[3-(morpholin-4-yl)-3-oxopropyl]-6-{[6-(trifluoromethyl)pyridin-3-yl]oxy}quinoline-2-carboxamide]
[1]
  IC50: 4.25 µM
